From ChEMBL document CHEMBL1201862, “PubChem BioAssay data set” (2004)
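Cells were grown in 96-well plates and exposed to each compound for 48 hours at five concentrations; endpoints were interpolated linearly between bracketing concentrations, or set to the highest concentration if not reached. GI50 = concentration required for 50% inhibition of growth.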 Activity calls are given as the source filed them. No stated cut-off is given here; in the data, active = GI50 up to about 1.1 µM and inactive = higher.

Tests used:
Assay in all cases: NCI anticancer screen, dose series, 48 h
OVCAR-4 = system: OVCAR-4
A498 = system: A498
LOX IMVI = system: LOX IMVI
NCI-H522 = system: NCI-H522
ACHN = system: ACHN
HCT-15 = system: HCT-15
MCF7 = system: MCF7
DU-145 = system: DU-145
RPMI-8226 = system: RPMI-8226
OVCAR-8 = system: OVCAR-8
HOP-62 = system: HOP-62
M14 = system: M14
OVCAR-5 = system: OVCAR-5
SK-OV-3 = system: SK-OV-3
U-251 = system: U-251
K562 = system: K562
HCC 2998 = system: HCC 2998
MOLT-4 = system: MOLT-4
SF-268 = system: SF-268
NCI-H460 = system: NCI-H460

SMILES | GI50 (OVCAR-4) | GI50 (A498) | GI50 (LOX IMVI) | GI50 (NCI-H522) | GI50 (ACHN) | GI50 (HCT-15) | GI50 (MCF7) | GI50 (DU-145) | GI50 (RPMI-8226) | GI50 (OVCAR-8) | GI50 (HOP-62) | GI50 (M14) | GI50 (OVCAR-5) | GI50 (SK-OV-3) | GI50 (U-251) | GI50 (K562) | GI50 (HCC 2998) | GI50 (MOLT-4) | GI50 (SF-268) | GI50 (NCI-H460)
C=C1CC[C@@H]2[C@](C)(COC(=O)CCC(=O)O)CCC[C@@]2(C)[C@@H]1CCC1=CC(=O)OC1 | > 100 µM (inactive) | > 100 µM (inactive) | > 100 µM (inactive) | > 100 µM (inactive) | > 100 µM (inactive) | > 100 µM | > 100 µM (inactive) | 5.97 µM (inactive) | > 100 µM (inactive) | > 100 µM (inactive) | > 100 µM (inactive) | > 100 µM (inactive) | > 100 µM (inactive) | > 100 µM (inactive) | > 100 µM (inactive) | > 100 µM (inactive) | > 100 µM (inactive) | > 100 µM (inactive) | > 100 µM (inactive) | 
CC(=O)Oc1cc2c[n+](C)c3c4cc(OC(C)=O)c(OC(C)=O)cc4ccc3c2cc1OC(C)=O |  | 7.5 µM (inactive) | 2.82 µM (inactive) | 0.647 µM (active) | 4.68 µM (inactive) | 2.69 µM | 3.17 µM (inactive) | 3.78 µM (inactive) | > 20 µM (inactive) | 2.73 µM (inactive) | 3.71 µM (inactive) | 4.38 µM (inactive) | 17.3 µM (inactive) | 4.32 µM (inactive) | 1.72 µM (inactive) |  | 9.23 µM (inactive) |  | 0.407 µM (active) | 4.93 µM (inactive)
CC1CCC2c3c([nH]c4ccccc34)C3C(=O)N(C4CCCCC4)C(=O)C3C2C1 (stereo unspecified) |  | 22 µM (inactive) | 52.5 µM (inactive) | > 100 µM (inactive) | 13.5 µM (inactive) | 49.8 µM | > 10 µM (inactive) | 30 µM (inactive) | 38.2 µM (inactive) | 15.4 µM (inactive) | 14.4 µM (inactive) | 23.7 µM (inactive) | 18.5 µM (inactive) | 18 µM (inactive) | 12.7 µM (inactive) | 19 µM (inactive) | > 100 µM (inactive) |  | 13.6 µM (inactive) | 26 µM (inactive)
CCC(=O)COc1ccc(NC(NC(=O)C(C(F)(F)F)C(F)(F)F)(C(F)(F)F)C(F)(F)F)cc1 | 35.6 µM (inactive) | 60.4 µM (inactive) | 28.6 µM (inactive) | 18.4 µM (inactive) | 33.5 µM (inactive) | 27.5 µM | 27.2 µM (inactive) | 22.2 µM (inactive) | 16.9 µM (inactive) | 23.9 µM (inactive) | > 100 µM (inactive) | 47.8 µM (inactive) | 46.8 µM (inactive) | 55.6 µM (inactive) | 46.7 µM (inactive) |  | > 100 µM (inactive) | 14.3 µM (inactive) | 27.9 µM (inactive) | 77.4 µM (inactive)
C=C(C)C(=O)O[C@H]1C/C(CO)=C/CCC(=C)C(OC(C)=O)[C@H]2OC(=O)C(=C)[C@H]12 (stereo partly specified) |  | 18.7 µM (inactive) | 4.12 µM (inactive) | 3.45 µM (inactive) | 8.45 µM (inactive) | 2.3 µM | 4.39 µM (inactive) | 17 µM (inactive) | 1.82 µM (inactive) | 16.2 µM (inactive) | 26.2 µM (inactive) | 3.49 µM (inactive) | 38.5 µM (inactive) | 44.9 µM (inactive) | 17.8 µM (inactive) | 2.44 µM (inactive) | 12.5 µM (inactive) | 1.96 µM (inactive) | 2 µM (inactive) | 17.1 µM (inactive)
CCN(CCN(CC)C(=O)Nc1ccccc1)C(=O)Nc1ccccc1 |  | > 100 µM (inactive) | > 100 µM (inactive) | > 100 µM (inactive) | > 100 µM (inactive) | > 100 µM | > 100 µM (inactive) | > 100 µM (inactive) | > 100 µM (inactive) | > 100 µM (inactive) | > 100 µM (inactive) | > 100 µM (inactive) | > 100 µM (inactive) | > 100 µM (inactive) | > 100 µM (inactive) | > 100 µM (inactive) | > 100 µM (inactive) | > 100 µM (inactive) | > 100 µM (inactive) | > 100 µM (inactive)
